According to patent publication US11026945B2, “Protein kinase RNA-like endoplasmic reticulum kinase (PERK) inhibitors for prevention and/or treatment of lung injury and/or inflammation” (THE TRUSTEES OF THE UNIVERSITY OF PENNSYLVANIA, priority 2016, dated 2021):

How the values were obtained:
[1] = system: cleaved caspase 3 (Casp3) in AEC-I monolayers; assay type: cell-based, rat
AEC-I monolayers = experiment: Monolayer permeability, FITC-labeled streptavidin binding to biotin; assay type: cell-based, rat
Source text: To obtain monolayer rat type-II alveolar epithelial cells (AEC-II), cells were isolated from Sprague-Dawley rats (250-300 g, N=30 purchased from Charles River Laboratories, Wilmington, Mass.) described by Tschumperlin D J, Margulies SS. Equibiaxial deformation-induced injury of alveolar epithelial cells in vitro. Am J Physiol. 1998; 275(6 Pt 1):L1173-83. Epub 1998/12/09 (PubMed PMID: 9843855), with modifications. Briefly, animals were killed and the lungs were harvested. The lung tissue was digested with elastase at 37° C. and distal airways were isolated. Following, cells were placed on rat IgG coated containing no serum for 90 minutes to eliminate contaminating leukocytes and parenchymal cells. This isolation method yielded approximately 95% pure alveolar epithelial cell population. 1.3 million cells were plated on 1 cm diameter fibronectin-coated custom made silastic membranes. In permeability studies, biotin were mixed with fibronectin and membranes were pretreated with oxygen plasma coating to ensure homogenous distribution of the fibronectin. Cells were cultured with 10% fetal bovine serum (FBS)-containing Minimal Essential Medium (MEM) containing low dose antibiotics for 3 days. 32 to 40 monolayers were per rat. On the 3rd day, matured monolayers were randomized to be exposed to one of the treatments for 24 hours (N=3 monolayers/treatment): • A. RNAiMax transfection reagent treatment using serum free media (Opti-MEM, Thermo Fisher Scientific, Waltham, Mass.). This is a negative control for siRNA experiments where serum free media is used for improved transfection efficiency; • B. non-targeting siRNA treatment ([…], Dharmacon) serves a negative control for transfection; • C. […]
The dose of siRNA and PI treatment was selected based on dose-response curves above (FIG. 2A-FIG. 2E). […] All membranes were treated with FITC-labeled streptavidin (Thermo Fisher Scientific) at the end of the experiment and light emission was detected at 488 nm with fluorescent microscopy (Nikon TE300, Melville, N.Y.). […]

tunicamycin
cell death measured with cleaved caspase 3 (Casp3) ([1]; tunicamycin 1 μg/ml 24 hrs): not related to increased cell death | monolayer permeability (AEC-I monolayers; 1 ug/ml tunicamycin 24 hrs treatment, vs DMSO vehicle control): increased permeability

O=C(/C=C/c1ccccc1)NC(NC(=S)Nc1cccc2cccnc12)C(Cl)(Cl)Cl (stereo not shown) [salubrinal]
Casp3 levels ([1]; salubrinal, unstretched and stretched monolayers): significant increase | monolayer permeability (AEC-I monolayers; 10 uM salubrinal 2 hrs pretreatment): increased permeability
